The source of these data is publication PMC12566520, “Targeted Modification of the Antimicrobial Peptide DGL13K Reveals a Naturally Optimized Sequence for Topical Applications” (Microorganisms, 2025).

The subject of data set [1] is Pseudomonas aeruginosa Xen41. It is filed as cell-based. The following applies: for MIC P. aeruginosa: overnight 37 °C, OD630. The procedure:
(§1) Pseudomonas aeruginosa Xen41 and Staphylococcus aureus Xen36 were obtained from Xenogen (Alameda, CA; now Revvity, Waltham, MA, USA) and Revvity, respectively, and stored at −80 °C in 10% glycerol. P. aeruginosa were cultured in Luria-Bertani broth while S. aureus were cultured in Todd-Hewitt Broth (Difco, Franklin Lakes, NJ, USA) overnight at 37 °C and shaking at 200 rpm. Cultures typically reached an optical density at 600 nm of 1.7 for P. aeruginosa and 1.3 for S. aureus.
(§2) MIC assays were performed as previously described. Briefly, overnight cultures of P. aeruginosa Xen41 were diluted to 10^5 CFU/mL in Mueller-Hinton Broth (Difco) while S. aureus Xen36 were similarly diluted in Todd-Hewitt Broth. Bacteria (100 µL) were added to 20 µL of 2-fold peptide dilutions in 10% PBS in 96-well polypropylene culture plates. The plates were incubated overnight at 37 °C with gentle rocking and then the optical density at 630 nm (OD630) was recorded in a BioTek Synergy HT plate reader (BioTek, Winooski, VT, USA; now Agilent, Santa Clara, CA, USA). Bioluminescence was recorded for quality control of the bioluminescent bacteria.

In data set [2] the test system is Staphylococcus aureus Xen36. It is filed as cell-based. The note with it: for MIC S. aureus: overnight 37 °C, OD630; for Antibacterial activity against S. aureus compared with unmodified peptide (in words): MIC assay. The procedure: as §1, §2
Data set [3] has as its system P. aeruginosa. Set-up: method as in PMID 23917321. The following applies: bacterial proteases, cultures of Gram-negative P. aeruginosa; cited from earlier work.
The subject of a further data set is human red blood cells. The note with it: cited from earlier work. From the text: The selective activity of many AMPs exploits the compositional differences between prokaryotic and eukaryotic membranes to avoid mammalian cell toxicity. The selectivity of AMPs is typically determined as the ratio between the hemolytic concentration and the MIC of the AMP (therapeutic index). One measure of the hemolytic activity is the peptide concentration leading to 50% lysis of red blood cells (HC50 = hemolytic concentration 50). This assay is routinely used for screening purposes and the lack of red cell toxicity is an important consideration for IV delivery of an AMP. ...

The conditions of data set [4]: aqueous stock 10 mg/mL in dH2O or 0.01% acetic acid, 4 °C, more than 2 years; cited from earlier work. From the text: Peptides are typically considered inherently unstable in aqueous solutions [57].
Data set [5] relates to P. aeruginosa. Nature of the data set: Heat stability (MIC assay after heating). The following applies: 1 mg/mL in 10% PBS, 80 °C for 60 min vs room temperature; read-out MIC assay against P. aeruginosa; duplicates, N = 2, repeated with similar results. Format: physicochemical, Pseudomonas aeruginosa. The procedure:
Peptides were diluted to 1 mg/mL in sterile 10% PBS (1 part PBS, 9 parts dH2O) and heated for 60 min in a 0.5 mL microcentrifuge tube in a water bath set at 80 °C. Control samples were similarly incubated at room temperature. The samples were used for MIC assays, as described below.
as §2
Figure 1 Heat stability of GL13K peptides. LGL13K (circles) or DGL13K (boxes) were incubated for 1 h at room temperature (open symbols) or 80 °C (closed symbols) and then used for an MIC assay against P. aeruginosa. Duplicate samples were tested and plotted as mean ± range, N = 2. The experiment was repeated with similar results.

In a further data set the test system is Enterococcus faecalis. The following applies: cited from earlier work. From the text: Proteolytic processing of AMPs has been cited as a concern for their development for clinical use. DGL13K was originally designed to overcome proteolytic processing of the L-enantiomer in cultures of P. aeruginosa.
The conditions of data set [6]: cited from earlier work.
Where [7] appears, read: Table 2, Xen41, 10^5 CFU/mL in Mueller-Hinton Broth, median MIC of 1–3 independent experiments.
[8] abbreviates: Table 2, Xen36, 10^5 CFU/mL in Todd-Hewitt Broth, median MIC of 1–3 independent experiments.
Where [9] appears, read: Table 3, Xen36, Todd-Hewitt Broth, median MIC of 2–4 independent experiments, values outside tested range set at 1000 µg/mL.
Where [10] appears, read: Table 3, Xen41, Mueller-Hinton Broth, median MIC of 2–4 independent experiments, values outside tested range set at 1000 µg/mL.

Read-outs that look alike come from different tables or passages of the source. Square brackets hold non-standard residues; d marks the D form. Ends that are not written are not given here. Peptide text beside a SMILES is read from it. d(aIle) = CC[C@H](C)[C@@H](N)C(=O)O; aIle = CC[C@@H](C)[C@H](N)C(=O)O

On to `CC[C@H](C)[C@@H](NC(=O)[C@@H](CCCCN)NC(=O)CN)C(=O)N[C@@H](C(=O)N[C@H](CCCCN)C(=O)N[C@H](CC(C)C)C(=O)N[C@H](CCCCN)C(=O)N[C@H](C)C(=O)N[C@H](CO)C(=O)N[C@H](CC(C)C)C(=O)N[C@H](CCCCN)C(=O)N[C@H](CC(C)C)C(=O)N[C@H](CC(C)C)C(N)=O)[C@@H](C)CC` [D-allo-Ile GL13K] (H-G[dK][d(aIle)][d(aIle)][dK][dL][dK][dA][dS][dL][dK][dL][dL]-NH2; N-terminus assumed), for which the “MIC P. aeruginosa” value in data set [1] (setting [7]) is 5.2 µg/mL. Also, the “MIC S. aureus” value in data set [2] (setting [8]) was determined as 2.6 µg/mL.

GKIIKLKASLKLL-NH2 [LGL13K]: in the data set with P. aeruginosa [3], the “Proteolytic degradation in cultures of P. aeruginosa” value is reported as “susceptible to bacterial proteases”. In addition, the “MIC P. aeruginosa” value in data set [1] (setting [7]) is listed as 10.4 µg/mL. Moreover, the “MIC S. aureus” value in data set [2] (setting [8]) is recorded as 83.3 µg/mL. Besides, the “HC50 (peptide concentration leading to 50% lysis of red blood cells)” value in the data set with human red blood cells was 500 to 1000 µg/mL.

With “GKIIKLKASLKLL-NH2 [PEG-LGL13K, N-terminally PEGylated version of LGL13K]”, the “Fold increase in MIC for P. aeruginosa versus unmodified parent peptide” value in data set [1] (compared with DGL13K (or LGL13K for PEG-LGL13K), Figure 4 / Table 3) was “three-fold”. Besides, the “Fold increase in MIC for S. aureus versus unmodified parent peptide” value in data set [2] (compared with DGL13K (or LGL13K for PEG-LGL13K), Figure 4) is listed as “two”.

Regarding `CC[C@@H](C)[C@@H](NC(=O)[C@@H](CCCNC(=N)N)NC(=O)CN)C(=O)N[C@@H](C(=O)N[C@H](CCCNC(=N)N)C(=O)N[C@H](CC(C)C)C(=O)N[C@H](CCCNC(=N)N)C(=O)N[C@H](C)C(=O)N[C@H](CO)C(=O)N[C@H](CC(C)C)C(=O)N[C@H](CCCNC(=N)N)C(=O)N[C@H](CC(C)C)C(=O)N[C@H](CC(C)C)C(N)=O)[C@H](C)CC` [DGL13R] (H-G[dR][dI][dI][dR][dL][dR][dA][dS][dL][dR][dL][dL]-NH2; N-terminus assumed), the “Antibacterial activity against S. aureus compared with unmodified peptide (in words)” value in data set [2] is reported as “not different from the parent peptide”. For the same compound, the “MIC S. aureus” value in data set [2] (setting [9]) is on record as 2.6 µg/mL.

As for `CC[C@@H](C)[C@@H](NC(=O)[C@@H](Cc1c[nH]c2ccccc12)NC(=O)[C@@H](CCCCN)NC(=O)[C@@H](CCCCN)NC(=O)CN)C(=O)N[C@H](CCCCN)C(=O)N[C@H](CCCCN)C(=O)N[C@H](C)C(=O)N[C@H](CO)C(=O)N[C@H](CCCCN)C(=O)N[C@H](Cc1c[nH]c2ccccc12)C(=O)N[C@H](CC(C)C)C(=O)O` [DGL12W] (H-G[dK][dK][dW][dI][dK][dK][dA][dS][dK][dW][dL]-OH; N-terminus assumed), the “MIC P. aeruginosa” value in data set [1] (setting [10]) was 13 µg/mL. Further, in data set [2], the “Antibacterial activity against S. aureus compared with unmodified peptide (in words)” value is “lost its activity”.

`CC[C@@H](C)[C@H](NC(=O)[C@H](CCCCN)NC(=O)CN)C(=O)N[C@H](C(=O)N[C@@H](CCCCN)C(=O)N[C@@H](CC(C)C)C(=O)N[C@@H](CCCCN)C(=O)N[C@@H](C)C(=O)N[C@@H](CO)C(=O)N[C@@H](CC(C)C)C(=O)N[C@@H](CCCCN)C(=O)N[C@@H](CC(C)C)C(=O)N[C@@H](CC(C)C)C(N)=O)[C@H](C)CC` [L-allo-Ile GL13K] (H-GK[aIle][aIle]KLKASLKLL-NH2; N-terminus assumed): in data set [1] (setting [7]), the “MIC P. aeruginosa” value came to 10.4 µg/mL. The “MIC S. aureus” value in data set [2] (setting [8]) is recorded as 83.3 µg/mL.

In the case of `CC[C@@H](C)[C@@H](NC(=O)[C@@H](CCCCN)NC(=O)CN)C(=O)N[C@@H](C(=O)N[C@H](CCCCN)C(=O)N[C@H](CC(C)C)C(=O)N[C@H](CCCCN)C(=O)N[C@H](C)C(=O)N[C@H](CO)C(=O)N[C@H](CC(C)C)C(=O)N[C@H](CCCCN)C(=O)N[C@H](CC(C)C)C(=O)N[C@H](CC(C)C)C(N)=O)[C@H](C)CC` [DGL13K] (H-G[dK][dI][dI][dK][dL][dK][dA][dS][dL][dK][dL][dL]-NH2; N-terminus assumed), the “Proteolytic degradation in cultures of P. aeruginosa” value with P. aeruginosa [3] is recorded as “not degraded”. Moreover, the “Loss of antibacterial activity of aqueous solution after storage” value in data set [4] was “did not lose antibacterial activity”. Moreover, the “Loss of activity after heating of solution” value in the data set on P. aeruginosa [5] is given as “no loss of activity”. Also, the “Proteolytic degradation in cultures of Enterococcus faecalis” value in the data set with Enterococcus faecalis is “resists proteolytic degradation”. Also, the “MIC P. aeruginosa” value in data set [1] (setting [7]) is listed as 7.8 µg/mL; in data set [1] (setting [10]) it was 5.2 µg/mL. For the same compound, the results for the “MIC S. aureus” value in data set [2] (setting [8]) and in data set [2] (setting [9]) were 2.6 µg/mL and 1.3 µg/mL, respectively. Further, the “HC50 (peptide concentration leading to 50% lysis of red blood cells)” value in the data set on human red blood cells is 500 to 1000 µg/mL. Moreover, in data set [6], the stability of aqueous solution (no loss of antibacterial activity) is more than 2 years.
